Measured values as given in patent US12617797B2, “Substituted pyrazolo [1,5-a]pyrimidines having multimodal activity against pain” (ESTEVE PHARMACEUTICALS, S.A., priority 2020, dated 2026).

How the values were obtained:
[1] = biological target: Human α2δ-1 subunit of Cav2.2 calcium channel (Homo sapiens, UniProt P54289); experiment: Human α2δ-1 subunit of Cav2.2 calcium channel assay ([3H]-gabapentin binding); conditions: binding to the α2δ-1 subunit of voltage-gated calcium channels expressed as Ki; + also covers inhibition between 1% and 50%
In short: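 Membranes enriched in human α2δ-1 incubated with 15 nM [3H]-gabapentin in 10 mM Hepes-KOH pH 7.4, 60 min at 27 °C; nonspecific binding defined with 10 μM pregabalin. Filtration and scintillation counting; % inhibition at 1 or 10 μM, or Ki from five concentrations.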

Human σ1 receptor = biological target: T1, Human σ1 receptor (Homo sapiens, UniProt Q99720); experiment: Human σ1 receptor radioligand assay ([3H](+)-pentazocine binding, transfected HEK-293 membranes); conditions: binding to σ1 receptor expressed as Ki; + also covers inhibition between 1% and 50%; read-out: σ-1 binding
T1 construct: expressed in transfected cells; host or cells: HEK-293
In short: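 Membranes (7 μg) were incubated with 5 nM [3H](+)-pentazocine in 50 mM Tris-HCl pH 8 for 120 min at 37° C. Non-specific binding was defined with 10 μM haloperidol. Values are % inhibition at 1 or 10 μM or Ki from five concentrations, read by filtration and scintillation counting.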

Chain of Human α2δ-1 subunit of Cav2.2 calcium channel (P54289 25-1103): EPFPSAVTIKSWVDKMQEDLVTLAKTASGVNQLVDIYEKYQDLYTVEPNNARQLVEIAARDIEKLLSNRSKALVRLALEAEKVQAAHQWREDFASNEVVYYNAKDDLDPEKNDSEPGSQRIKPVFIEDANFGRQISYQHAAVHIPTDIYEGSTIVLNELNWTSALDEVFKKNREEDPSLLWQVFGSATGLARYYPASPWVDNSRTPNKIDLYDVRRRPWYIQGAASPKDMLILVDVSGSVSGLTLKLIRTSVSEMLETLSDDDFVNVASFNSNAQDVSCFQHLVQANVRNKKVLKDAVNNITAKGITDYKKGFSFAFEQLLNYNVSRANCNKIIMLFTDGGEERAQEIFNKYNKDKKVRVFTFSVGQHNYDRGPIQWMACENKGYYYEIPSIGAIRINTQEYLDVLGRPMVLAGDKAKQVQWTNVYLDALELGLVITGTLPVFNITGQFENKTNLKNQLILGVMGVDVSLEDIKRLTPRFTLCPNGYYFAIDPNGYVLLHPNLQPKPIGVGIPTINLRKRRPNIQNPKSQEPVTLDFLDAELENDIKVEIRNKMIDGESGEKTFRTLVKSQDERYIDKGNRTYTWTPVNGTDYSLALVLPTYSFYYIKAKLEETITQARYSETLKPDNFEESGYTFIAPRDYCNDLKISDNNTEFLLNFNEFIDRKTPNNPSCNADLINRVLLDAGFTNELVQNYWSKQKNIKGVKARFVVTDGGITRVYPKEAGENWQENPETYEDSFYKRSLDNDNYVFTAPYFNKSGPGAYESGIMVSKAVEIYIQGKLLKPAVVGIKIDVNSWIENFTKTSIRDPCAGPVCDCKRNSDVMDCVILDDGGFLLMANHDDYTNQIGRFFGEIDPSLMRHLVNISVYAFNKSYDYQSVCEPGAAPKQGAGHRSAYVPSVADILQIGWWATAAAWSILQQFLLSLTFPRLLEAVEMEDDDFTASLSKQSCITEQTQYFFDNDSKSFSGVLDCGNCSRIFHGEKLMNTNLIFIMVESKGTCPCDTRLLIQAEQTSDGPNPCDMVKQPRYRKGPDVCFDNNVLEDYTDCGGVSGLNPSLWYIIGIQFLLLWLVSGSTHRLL
T1 sequence (Q99720 whole entry): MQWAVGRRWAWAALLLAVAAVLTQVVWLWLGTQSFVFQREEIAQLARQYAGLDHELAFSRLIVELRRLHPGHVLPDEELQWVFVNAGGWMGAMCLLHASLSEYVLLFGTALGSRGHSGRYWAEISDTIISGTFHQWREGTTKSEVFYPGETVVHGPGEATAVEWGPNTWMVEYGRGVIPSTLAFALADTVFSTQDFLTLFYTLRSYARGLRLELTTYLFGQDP

Row | Compound | Ki [1] [nM] | Ki (Human σ1 receptor) [nM]
1 | CN[C@@H]1CCN(c2cc3nccc([C@H]4CCCN(Cc5ccccc5)C4)n3n2)C1 [Example 87, (R)-1-(7-((S)-1-Benzylpiperidin-3-yl)pyrazolo[1,5-a]pyrimidin-2-yl)-N-methylpyrrolidin-3-amine] | 500 to 5000 | > 1000
2 | c1ccc(CN2CCCC(c3ccnc4c(N5CCCC5)cnn34)C2)cc1 (stereo not shown) [Example 88, 7-(1-Benzylpiperidin-3-yl)-3-(pyrrolidin-1-yl)pyrazolo[1,5-a]pyrimidine] | > 5000 | 500 to 1000
3 | Cc1nn2c(C3CCCN(Cc4ccccc4)C3)ccnc2c1N1CCCC1 (stereo not shown) [Example 89, 7-(1-Benzylpiperidin-3-yl)-2-methyl-3-(pyrrolidin-1-yl)pyrazolo[1,5-a]pyrimidine] | 500 to 5000 | 500 to 1000
4 | Cc1nn2c(C3CCCN(Cc4ccccc4)C3)ccnc2c1N (stereo not shown) [Example 90, 7-(1-Benzylpiperidin-3-yl)-2-methylpyrazolo[1,5-a]pyrimidin-3-amine] | > 5000 | > 1000
5 | N#Cc1cc2nccc(C3CCCN(Cc4ccccc4)C3)n2n1 (stereo not shown) [Example 91, 7-(1-Benzylpiperidin-3-yl)pyrazolo[1,5-a]pyrimidine-2-carbonitrile] | 500 to 5000 | > 1000
6 | Cc1nn2c(C3CCCN(Cc4ccccc4)C3)ccnc2c1CNCCc1ccccc1 (stereo not shown) [Example 97, N-((7-(1-Benzylpiperidin-3-yl)-2-methylpyrazolo[1,5-a]pyrimidin-3-yl)methyl)-2-phenylethanamine] | 500 to 5000 | < 500
7 | Cc1nn2c(C3CCCN(Cc4ccccc4)C3)ccnc2c1CN1CCNCC1 (stereo not shown) [Example 100, 7-(1-Benzylpiperidin-3-yl)-2-methyl-3-(piperazin-1-ylmethyl)pyrazolo[1,5-a]pyrimidine] | 500 to 5000 | > 1000
8 | Cc1nn2c(C3CCCN(Cc4ccccc4)C3)ccnc2c1COCc1ccccc1 (stereo not shown) [Example 101, 3-((Benzyloxy)methyl)-7-(1-benzylpiperidin-3-yl)-2-methylpyrazolo[1,5-a]pyrimidine] | > 5000 | < 500
9 | Cc1nn2c(C3CCCN(Cc4ccccc4)C3)ccnc2c1COc1ccccc1 (stereo not shown) [Example 102, 7-(1-Benzylpiperidin-3-yl)-2-methyl-3-(phenoxymethyl)pyrazolo[1,5-a]pyrimidine] | > 5000 | > 1000
10 | Cc1nn2c([C@@H]3CCCN([C@H](CO)c4ccccc4)C3)ccnc2c1-c1ccncc1 [Example 106, (S)-2-((R)-3-(2-Methyl-3-(pyridin-4-yl)pyrazolo[1,5-a]pyrimidin-7-yl)piperidin-1-yl)-2-phenylethanol] | > 5000 | > 1000
11 | Cc1nn2c([C@H]3CCCN([C@@H](CO)c4ccccc4)C3)ccnc2c1-c1ccncc1 [Example 108, (R)-2-((S)-3-(2-methyl-3-(pyridin-4-yl)pyrazolo[1,5-a]pyrimidin-7-yl)piperidin-1-yl)-2-phenylethanol] | > 5000 | > 1000
12 | Cc1nn2c([C@@H]3CCCN([C@@H](CO)c4ccccc4)C3)ccnc2c1-c1ccncc1 [Example 109, (R)-2-((R)-3-(2-methyl-3-(pyridin-4-yl)pyrazolo[1,5-a]pyrimidin-7-yl)piperidin-1-yl)-2-phenylethanol] | 500 to 5000 | > 1000
13 | Clc1cccc(CN2CCCC(c3ccnc4cc(Br)nn34)C2)c1 (stereo not shown) [Example 111, 2-Bromo-7-(1-(3-chlorobenzyl)piperidin-3-yl)pyrazolo[1,5-a]pyrimidine] | > 5000 | > 1000
14 | Clc1ccc(CN2CCCC(c3ccnc4cc(Br)nn34)C2)cc1Cl (stereo not shown) [Example 112, 2-Bromo-7-(1-(3,4-dichlorobenzyl)piperidin-3-yl)pyrazolo[1,5-a]pyrimidine] | > 5000 | > 1000
15 | COc1ncccc1-c1cc2nccc(C3CCCN(Cc4ccc(Cl)cc4)C3)n2n1 (stereo not shown) [Example 114, 7-(1-(4-Chlorobenzyl)piperidin-3-yl)-2-(2-methoxypyridin-3-yl)pyrazolo[1,5-a]pyrimidine] | > 5000 | > 1000
16 | COc1ncccc1-c1cc2nccc(C3CCCN(Cc4cccc(Cl)c4)C3)n2n1 (stereo not shown) [Example 116, 7-(1-(3-Chlorobenzyl)piperidin-3-yl)-2-(2-methoxypyridin-3-yl)pyrazolo[1,5-a]pyrimidine] | > 5000 | > 1000
17 | Oc1ncccc1-c1cc2nccc(C3CCCN(Cc4cccc(Cl)c4)C3)n2n1 (stereo not shown) [Example 117, 3-(7-(1-(3-Chlorobenzyl)piperidin-3-yl)pyrazolo[1,5-a]pyrimidin-2-yl)pyridin-2-ol] | > 5000 | > 1000
18 | COc1ncccc1-c1cc2nccc(C3CCCN(Cc4ccc(F)c(F)c4)C3)n2n1 (stereo not shown) [Example 119, 7-(1-(3,4-Difluorobenzyl)piperidin-3-yl)-2-(2-methoxypyridin-3-yl)pyrazolo[1,5-a]pyrimidine] | > 5000 | > 1000
19 | Clc1ccc(CN2CCCC(c3ccnc4c(CNCC5CCOCC5)c(Br)nn34)C2)cc1 (stereo not shown) [Example 120, 1-(2-Bromo-7-(1-(4-chlorobenzyl)piperidin-3-yl)pyrazolo[1,5-a]pyrimidin-3-yl)-N-((tetrahydro-2H-pyran-4-yl)methyl)methanamine] | < 500 | < 500
20 | Cc1nn2c(C3CCCN(Cc4ccc(Cl)cc4)C3)ccnc2c1-c1ccncc1 (stereo not shown) [Example 121, 7-(1-(4-Chlorobenzyl)piperidin-3-yl)-2-methyl-3-(pyridin-4-yl)pyrazolo[1,5-a]pyrimidine] | 500 to 5000 | 500 to 1000
21 | Cc1nn2c(C3CCCN(Cc4cccc(Cl)c4)C3)ccnc2c1-c1ccncc1 (stereo not shown) [Example 122, 7-(1-(3-Chlorobenzyl)piperidin-3-yl)-2-methyl-3-(pyridin-4-yl)pyrazolo[1,5-a]pyrimidine] | 500 to 5000 | > 1000

Further lines, results first:

Row | Ki [1] [nM] | Ki (Human σ1 receptor) [nM] | Compound
22 | 500 to 5000 | > 1000 | CN[C@H]1CCN(c2cc3nccc([C@@H]4CCCN(Cc5ccccc5)C4)n3n2)C1 [Example 86, (S)-1-(7-((R)-1-Benzylpiperidin-3-yl)pyrazolo[1,5-a]pyrimidin-2-yl)-N-methylpyrrolidin-3-amine]
23 | 500 to 5000 | > 1000 | CN(C)Cc1cc2nccc(C3CCCN(Cc4ccccc4)C3)n2n1 (stereo not shown) [Example 92, 1-(7-(1-Benzylpiperidin-3-yl)pyrazolo[1,5-a]pyrimidin-2-yl)-N,N-dimethylmethanamine]
24 | 500 to 5000 | > 1000 | CNCc1cc2nccc(C3CCCN(Cc4ccccc4)C3)n2n1 (stereo not shown) [Example 93, 1-(7-(1-Benzylpiperidin-3-yl)pyrazolo[1,5-a]pyrimidin-2-yl)-N-methylmethanamine]
25 | 500 to 5000 | > 1000 | c1ccc(CNCc2cc3nccc(C4CCCN(Cc5ccccc5)C4)n3n2)cc1 (stereo not shown) [Example 94, N-Benzyl-1-(7-(1-benzylpiperidin-3-yl)pyrazolo[1,5-a]pyrimidin-2-yl)methanamine]
26 | > 5000 | > 1000 | Cc1nn2c(C3CCCN(Cc4ccccc4)C3)ccnc2c1CO (stereo not shown) [Example 95, (7-(1-Benzylpiperidin-3-yl)-2-methylpyrazolo[1,5-a]pyrimidin-3-yl)methanol]
27 | 500 to 5000 | > 1000 | CNCc1c(C)nn2c(C3CCCN(Cc4ccccc4)C3)ccnc12 (stereo not shown) [Example 96, 1-(7-(1-Benzylpiperidin-3-yl)-2-methylpyrazolo[1,5-a]pyrimidin-3-yl)-N-methylmethanamine]
28 | 500 to 5000 | < 500 | Cc1nn2c(C3CCCN(Cc4ccccc4)C3)ccnc2c1CNCc1ccccc1 (stereo not shown) [Example 98, N-Benzyl-1-(7-(1-benzylpiperidin-3-yl)-2-methylpyrazolo[1,5-a]pyrimidin-3-yl)methanamine]
29 | 500 to 5000 | > 1000 | Cc1nn2c(C3CCCN(Cc4ccccc4)C3)ccnc2c1CN (stereo not shown) [Example 99, (7-(1-Benzylpiperidin-3-yl)-2-methylpyrazolo[1,5-a]pyrimidin-3-yl)methanamine]
30 | 500 to 5000 | > 1000 | Cc1nn2c(C3CCCN(Cc4ccccc4)C3)ccnc2c1CCCN (stereo not shown) [Example 103, 3-(7-(1-Benzylpiperidin-3-yl)-2-methylpyrazolo[1,5-a]pyrimidin-3-yl)propan-1-amine]
31 | > 5000 | > 1000 | Cc1nn2c([C@H]3CCCN([C@H](CO)c4ccccc4)C3)ccnc2c1-c1ccncc1 [Example 107, (S)-2-((S)-3-(2-methyl-3-(pyridin-4-yl)pyrazolo[1,5-a]pyrimidin-7-yl)piperidin-1-yl)-2-phenylethanol]
32 | > 5000 | 500 to 1000 | Clc1ccc(CN2CCCC(c3ccnc4cc(Br)nn34)C2)cc1 (stereo not shown) [Example 110, 2-Bromo-7-(1-(4-chlorobenzyl)piperidin-3-yl)pyrazolo[1,5-a]pyrimidine]
33 | 500 to 5000 | > 1000 | Fc1ccc(CN2CCCC(c3ccnc4cc(Br)nn34)C2)cc1F (stereo not shown) [Example 113, 2-Bromo-7-(1-(3,4-difluorobenzyl)piperidin-3-yl)pyrazolo[1,5-a]pyrimidine]
34 | > 5000 | > 1000 | Oc1ncccc1-c1cc2nccc(C3CCCN(Cc4ccc(Cl)cc4)C3)n2n1 (stereo not shown) [Example 115, 3-(7-(1-(4-chlorobenzyl)piperidin-3-yl)pyrazolo[1,5-a]pyrimidin-2-yl)pyridin-2-ol]
35 | > 5000 | > 1000 | COc1ncccc1-c1cc2nccc(C3CCCN(Cc4ccc(Cl)c(Cl)c4)C3)n2n1 (stereo not shown) [Example 118, 7-(1-(3,4-Dichlorobenzyl)piperidin-3-yl)-2-(2-methoxypyridin-3-yl)pyrazolo[1,5-a]pyrimidine]
